Molecules are shown by their SMILES.

This passage reports IC50 results from BindingDB's records for patent US10294246 (Merck Patent, 2019).

The experiment addresses T1, Proteasome subunit beta type-8 (Homo sapiens, UniProt P28062).
T1 sequence (P28062 whole entry): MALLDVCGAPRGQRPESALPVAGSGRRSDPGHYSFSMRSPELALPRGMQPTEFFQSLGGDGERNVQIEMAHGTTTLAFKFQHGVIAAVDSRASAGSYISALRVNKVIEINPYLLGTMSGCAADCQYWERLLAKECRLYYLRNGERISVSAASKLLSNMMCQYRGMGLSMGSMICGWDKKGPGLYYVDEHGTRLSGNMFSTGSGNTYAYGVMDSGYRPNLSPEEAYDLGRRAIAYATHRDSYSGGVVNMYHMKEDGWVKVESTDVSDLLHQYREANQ
As to the kind of experiment: Determination of LMP7 Activity. The procedure:
Measurement of LMP7 inhibition is performed in 384 well format based on fluorescence intensity assay.Purified human immunoproteasome (0.25 nM) and serial diluted compounds in DMSO (range of concentrations from 30 μM to […]) or controls are incubated for 20 minutes at 25° C. in assay buffer containing 50 mM Tris pH 7.4, 0.03% SDS, 1 mM EDTA and 1% DMSO. The reaction is initiated by the addition of the fluorogenic peptide substrate, Suc-LLVY-AMC (Bachem 1-1395), at a concentration of 40 μM. After 60 minutes of incubation at 37° C., fluorescence intensity is measured at λex=350 nm and λem=450 nm with a fluorescence reader (Perkin Elmer Envision reader or equivalent).
For the compound `Cc1ccc(OCCC(=O)N[C@@H](Cc2coc3ccccc23)B(O)O)cc1` [US10294246, Compound No. 7], the IC50 is less than 0.05 µM. To `CC(=O)Nc1ccc(CC(=O)N[C@@H](Cc2coc3ccccc23)B(O)O)cc1` [US10294246, Compound No. 26] belongs less than 0.05 µM; to `CC(=O)Nc1cccc(CC(=O)N[C@@H](Cc2coc3ccccc23)B(O)O)c1` [US10294246, Compound No. 32], less than 0.05 µM.

In turn, `CO[C@H](C(=O)N[C@@H](Cc1coc2ccccc12)B(O)O)c1ccccc1` [US10294246, Compound No. 33] displayed an IC50 of less than 0.05 µM. To `C[C@H](C(=O)N[C@@H](Cc1coc2ccccc12)B(O)O)c1ccccc1` [US10294246, Compound No. 37] belongs less than 0.05 µM. To `COc1ccc(C(F)(F)C(=O)N[C@@H](Cc2coc3ccccc23)B(O)O)cc1` [US10294246, Compound No. 51] belongs less than 0.05 µM; to `CCO[C@@H](C(=O)N[C@@H](Cc1coc2ccccc12)B(O)O)c1ccccc1` [US10294246, Compound No. 70], less than 0.05 µM.

As a reminder, the IC50 is the concentration at which inhibition is half-maximal. Read a high IC50 as weaker potency in that assay.
